According to patent publication US20190175685A1, “METHODS OF TREATING AND PREVENTING CANCER TREATMENT SIDE EFFECTS” (FILAMENT BIOSOLUTIONS INC., priority 2016, published 2019):
“Also recorded” adds a separate entry of the source. Residues, ends and D or L forms follow the SMILES beside them.

How the values were obtained:
[1] = Plasma glutamine levels after a single oral gavage dose in rats; assay type: in vivo, male Sprague Dawley rats; conditions: for change in plasma glutamine levels versus pre-dose: high, medium and low dose, 3 to 540 minutes after dose, UHPLC/MS/MS
Method: Alanyl-Glutamine and glutamine were administered as a single dose by oral gavage, with deionized water as the vehicle, into male Sprague Dawley rats. The oral gavage of Alanyl-Glutamine and glutamine was administered to different groups at three distinct levels, a high, medium and low dose. Each dose level contained molar equivalent amounts of Glutamine (doses selected to correspond to relevant human doses) so that the resulting changes in plasma Glutamine levels could be directly compared in vivo. The concurrent control group received the vehicle (deionized water) by oral gavage. The dose volume was 20 ml/kg for the oral gavage. Each treatment group consisted of three males. For pharmacokinetic evaluation, blood samples were collected via a jugular vein cannula (JVC) from 3 animals/group/time point prior to dose administration and at 3, 10, 20, 40, 60, 90, 180, 360, and 540 minutes after dose administration. Each sample was analyzed to determine plasma glutamine concentration using a qualified ultra-high performance liquid chromatography mass spectrometry method (UHPLC/MS/MS), developed expressly for the determination of glutamine levels in rat plasma. A subtractive analysis of the plasma levels was then performed, in which the data from each individual animal was subtracted from their pre-dose plasma glutamine levels. The resulting data-points were then averaged for each dosing group and graphed, and represent the change in plasma glutamine after administration of the two different compositions.

[2] = system: small intestinal crypt survival and regeneration; assay: Intestinal crypt survival after irradiation in a murine model; assay type: in vivo, mice; conditions: for number of surviving and regenerating crypts, pre-irradiation treatment versus treatment concurrent with radiation: oral twice daily 0.2 ml, day -5 to +4 compared with day 0 to +4, 13 Gy on day 0, scored day 4 post-irradiation
Excerpt: In this example irradiation was used to target the proliferating clonogenic cells of the crypt. Following irradiation, crypt cells can become impaired and undergo apoptosis, or programmed cell death, resulting in a reduction in the number of viable crypts, which could regenerate and heal the intestinal tissue. The more crypts that are lost the greater the level of ulceration, which can manifest as the symptoms of mucositis. […] This model of crypt cell survival is therefore often used as a surrogate for manifestation of mucositis, e.g., oral mucositis.
In this example the efficacy of orally administered Alanyl-Glutamine (Ala-Gln) and Glutamine (Gln) on small intestinal crypt survival and regeneration and maintenance of villus structure was assessed in response to radiation insult in a murine model. The crypt cells were measured at 4 days post high-dose irradiation, a time at which crypt cells affected by radiation have died and surviving cells begin to regenerate. The level of crypt cell survival at this time directly correlates to severity of ulceration and ultimately animal survival.
Ala-Gln and Gin were administered orally twice daily at a volume of 0.2 ml either pre- and post-irradiation (day −5 to day 4), or post-irradiation alone (day 0 to day 4). The animals were given doses of Ala-Gln at a concentration of 39.65 mg/ml and Gln at a concentration of 26.75 mg/ml, which contain molar equivalent doses of Gin. Vehicle control animals were administered 0.2 ml of water orally twice daily.
Animals were irradiated on day 0 at 3 pm. Irradiation was performed using an XStrahl RS320 X-ray set, operated at 300 Kv, 10 Ma. Radiation was delivered at a dose rate of 0.832 Gy/min using a single uniform dose of 13 Gy radiation. A dosimetry device was placed in the irradiation chamber to confirm the dose received. […]
For each animal in the study, ten intestinal circumferences were analyzed, providing a total of 80 circumferences per treatment group available for analysis. The number of surviving and regenerating crypts per circumference was scored and the average per group was determined.

Compound | plasma glutamine levels, Alanyl-Glutamine versus glutamine at equivalent molar doses ([1]; each of three dose levels (high, middle, low)) | change in plasma glutamine levels versus pre-dose [1] | average number of crypts, Ala-Gln versus Gln ([2]; groups treated pre-irradiation (-5 to +4), molar equivalent doses of Gln, 13 Gy, scored day 4) | number of surviving and regenerating crypts, pre-irradiation treatment versus treatment concurrent with radiation [2]
C[C@H](N)C(=O)N[C@@H](CCC(N)=O)C(=O)O [Alanyl-Glutamine, L-alanyl-L-glutamine] (H-Ala-Gln-OH) | higher plasma glutamine levels at each dose; also recorded: increased more | increase in glutamine levels in the plasma at all dose levels | higher average number of crypts | significantly more crypts
NC(=O)CC[C@H](N)C(=O)O [glutamine, reference compound] |  | increase in glutamine levels in the plasma at all dose levels |  | significantly more crypts
